# pKd: −log10 of the molar value. Numbered stars: 1 amine (or outer) side, 2 acyl side, 3 side chain; on linkers, the order of the positions; unused ones are H or OH. Bridge positions count the residues as written; N and C are the ends. Square brackets hold non-standard residues; d marks the D form. Side chains are listed from the residue outwards. Peptide text beside a SMILES is read from it. * marks the point of attachment. Trp(1-Me,7-Cl) = Cn1cc(C[C@H](N)C(=O)O)c2cccc(Cl)c21; Ala(2-NH2-4-pyridyl) = Nc1cc(C[C@H](N)C(=O)O)ccn1; dPhe(3-CONH2) = NC(=O)c1cccc(C[C@@H](N)C(=O)O)c1; Piperazinyl(4-CH2COOH) = O=C(O)CN1CCN(*)CC1; Trp(1-Me) = Cn1cc(C[C@H](N)C(=O)O)c2ccccc21; X5 = Cc1cccc(C[C@H](N[*:1])C(=O)[*:2])c1C; NMe3Pal = CN[C@@H](Cc1cccnc1)C(=O)O; NMeF = CN[C@@H](Cc1ccccc1)C(=O)O; hCit = NC(=O)NCCCC[C@H](N)C(=O)O; Gly(cBu) = N[C@H](C(=O)O)C1CCC1; NMeE = CN[C@@H](CCC(=O)O)C(=O)O; Aad = N[C@@H](CCCC(=O)O)C(=O)O; NMeN = CN[C@@H](CC(N)=O)C(=O)O; dAhp(2) = CCCCC[C@@H](N)C(=O)O; Cba = N[C@@H](CC1CCC1)C(=O)O; CO = O=C([*:1])[*:2]
# Molecular target: T1, Recombinant Human EphA2 Fc Protein (Homo sapiens, UniProt P29317)
# T1 construct: purchased Elabscience
# Assay: SPR interaction analysis (Biacore T200), kinetics of peptides against EphA2
# Assay type: binding
# Conditions: Recombinant Human EphA2 Fc Protein captured by Human Antibody Capture kit; single-cycle kinetics; 25° C.; HBS-P+ buffer with 1% DMSO
# Outline: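 KD derived from ka and kd, fitted on baseline-subtracted sensorgrams from single-cycle kinetics of five peptide dilutions. Running buffer: HBS-P+ (pH 7.4) plus 1% DMSO, 25° C, Biacore T200. Recombinant human EphA2-Fc held on an antibody capture surface.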
row,Compound,pKd
1,"CC(C)[C@@H]1NC(=O)[C@H](Cc2cn(C)c3c(Cl)cccc23)NC(=O)[C@H](CC(N)=O)N(C)C(=O)[C@H](CCCC(N)=O)NC(=O)[C@H](C2CCC2)NC(=O)[C@H](CC(N)=O)NC(=O)[C@H](Cc2ccccc2)N(C)C(=O)[C@@H](Cc2cccc(C(N)=O)c2)NC(=O)CSC[C@@H](C(N)=O)NC(=O)[C@H](CCCC(N)=O)NC(=O)[C@H]([C@@H](C)O)NC(=O)[C@H](Cc2cn(C)c3ccccc23)NC1=O [PDC_EphA2-00019421, df3CON-MeF-N-Cbg-Hgn-MeN-W1Me7Cl-V-W1Me-T-Hgn-C-NH2] ({CH2CO}-[dPhe(3-CONH2)][NMeF]N[Gly(cBu)][Aad](NH2)[NMeN][Trp(1-Me,7-Cl)]V[Trp(1-Me)]T[Aad](NH2)C-NH2; thioether N-12)",> 9.00
2,"CC(C)C[C@@H]1NC(=O)[C@H](CC(N)=O)NC(=O)[C@H](Cc2cccnc2)N(C)C(=O)[C@@H](Cc2cccc(C(N)=O)c2)NC(=O)CSC[C@@H](C(N)=O)NC(=O)[C@H](Cc2cn(C)c3ccccc23)NC(=O)[C@H](CCCCNC(N)=O)NC(=O)[C@H](Cc2cn(C)c3c(Cl)cccc23)NC(=O)[C@H](Cc2cccnc2)N(C)C(=O)[C@H](CO)NC1=O [PDC_EphA2-00026601, df3CON-Me3Py-N-L-S-Me3Py-W1Me7Cl-Hcit-W1Me-C-NH2] ({CH2CO}-[dPhe(3-CONH2)][NMe3Pal]NLS[NMe3Pal][Trp(1-Me,7-Cl)][hCit][Trp(1-Me)]C-NH2; thioether N-10)",8.00 to 9.00
3,"CN1C(=O)[C@H](CO)NC(=O)[C@H](C2CCC2)NC(=O)[C@H](CC(N)=O)NC(=O)[C@H](Cc2cccnc2)N(C)C(=O)[C@@H](Cc2cccc(C(N)=O)c2)NC(=O)CSC[C@@H](C(N)=O)NC(=O)[C@H](Cc2cn(C)c3ccccc23)NC(=O)[C@H](CCCCNC(N)=O)NC(=O)[C@H](Cc2cn(C)c3c(Cl)cccc23)NC(=O)[C@@H]1Cc1cccnc1 [PDC_EphA2-00026602, df3CON-Me3Py-N-Cbg-S-Me3Py-W1Me7Cl-Hcit-W1Me-C-NH2] ({CH2CO}-[dPhe(3-CONH2)][NMe3Pal]N[Gly(cBu)]S[NMe3Pal][Trp(1-Me,7-Cl)][hCit][Trp(1-Me)]C-NH2; thioether N-10)",> 9.00
4,"C[C@H]1NC(=O)CSC[C@@H](C(=O)NCC(N)=O)NC(=O)[C@H](Cc2cn(C)c3ccccc23)NC(=O)[C@H](CCCCNC(N)=O)NC(=O)[C@H](Cc2cn(C)c3ccccc23)NC(=O)[C@H](CC(N)=O)NC(=O)[C@H]([C@@H](C)O)NC(=O)[C@H](CC2CCC2)NC(=O)[C@H](CC(N)=O)NC(=O)[C@H](Cc2ccccc2)N(C)C1=O [PDC_EphA2-00021407-L092, da-MeF-N-Cba-T-N-W1Me-Hcit-W1Me-C-G-NH2] ({CH2CO}-[dA][NMeF]N[Cba]TN[Trp(1-Me)][hCit][Trp(1-Me)]CG-NH2; thioether N-10)",6.40 to 7.00
5,"CC(C)C[C@@H]1NC(=O)[C@H](CC(N)=O)NC(=O)[C@H](Cc2cccnc2)N(C)C(=O)[C@@H](Cc2cccc(C(N)=O)c2)NC(=O)CSC[C@@H](C(N)=O)NC(=O)[C@H](Cc2cn(C)c3ccccc23)NC(=O)[C@H](CCCCNC(N)=O)NC(=O)[C@H](Cc2cn(C)c3c(Cl)cccc23)NC(=O)[C@H](Cc2ccccc2)N(C)C(=O)[C@H](CO)NC1=O [PDC_EphA2-00026600, df3CON-Me3Py-N-L-S-MeF-W1Me7Cl-Hcit-W1Me-C-NH2] ({CH2CO}-[dPhe(3-CONH2)][NMe3Pal]NLS[NMeF][Trp(1-Me,7-Cl)][hCit][Trp(1-Me)]C-NH2; thioether N-10)",8.00 to 9.00
6,"CC(=O)NCCCC[C@@H](NC(=O)[C@@H]1CSCC(=O)N[C@@H](Cc2ccccc2)C(=O)N[C@@H](Cc2ccnc(N)c2)C(=O)N[C@@H](CC(C)C)C(=O)N[C@@H](CCCCNC(N)=O)C(=O)N[C@@H](Cc2cn(C)c3ccccc23)C(=O)N(C)[C@@H](Cc2ccccc2)C(=O)N[C@@H](Cc2cn(C)c3ccccc23)C(=O)N1)C(N)=O [PDC_EphA2-00022603, F-4Py2NH2-L-Hcit-W1Me-MeF-W1Me-C-dkAc-NH2] ({CH2CO}-F[Ala(2-NH2-4-pyridyl)]L[hCit][Trp(1-Me)][NMeF][Trp(1-Me)]C[dK](Ac)-NH2; thioether N-8)",6.40 to 7.00
7,"C[C@@H]1SCC(=O)N[C@H](Cc2cccc(C(N)=O)c2)C(=O)N(C)[C@@H](Cc2cccnc2)C(=O)N[C@@H](CC(N)=O)C(=O)N[C@@H](C2CCC2)C(=O)N[C@@H](CCCC(N)=O)C(=O)N(C)[C@@H](CCC(=O)O)C(=O)N[C@@H](Cc2cn(C)c3c(Cl)cccc23)C(=O)N[C@@H](CCCCNC(=O)N2CCN(CC(=O)O)CC2)C(=O)N[C@@H](Cc2cn(C)c3ccccc23)C(=O)N[C@@H]1C(N)=O [PDC_EphA2-00026610, df3CON-Me3Py-N-Cbg-Hgn-MeE-W1Me7Cl-KCOpipzaa-W1Me-C3SMe-NH2]",8.00 to 9.00

# Now from value to compound:
row,pKd,Compound
1,> 9.00,"C[C@@H](O)[C@@H]1NC(=O)[C@H](Cc2cn(C)c3ccccc23)NC(=O)[C@H](CCCCNC(=O)N2CCN(CC(=O)O)CC2)NC(=O)[C@H](Cc2cn(C)c3c(Cl)cccc23)NC(=O)[C@H](CC(N)=O)N(C)C(=O)[C@H](CCCC(N)=O)NC(=O)[C@H](C2CCC2)NC(=O)[C@H](CC(N)=O)NC(=O)[C@H](Cc2ccccc2)N(C)C(=O)[C@@H](Cc2cccc(C(N)=O)c2)NC(=O)CSC[C@@H](C(N)=O)NC(=O)[C@H](CCCC(N)=O)NC1=O [PDC_EphA2-00019425, df3CON-MeF-N-Cbg-Hgn-MeN-W1Me7Cl-KCOpipzaa-W1Me-T-Hgn-C-NH2] ({CH2CO}-[dPhe(3-CONH2)][NMeF]N[Gly(cBu)][Aad](NH2)[NMeN][Trp(1-Me,7-Cl)]K([CO-Piperazinyl(4-CH2COOH)])[Trp(1-Me)]T[Aad](NH2)C-NH2; thioether N-12)"
2,> 9.00,"Cc1cccc(C[C@@H]2NC(=O)[C@H](CCCCNC(=O)N3CCN(CC(=O)O)CC3)NC(=O)[C@H](Cc3cn(C)c4ccccc34)NC(=O)[C@H](Cc3ccccc3)N(C)C(=O)[C@H](CCCC(N)=O)NC(=O)[C@H](C3CCC3)NC(=O)[C@H](CC(N)=O)NC(=O)[C@H](Cc3cccnc3)N(C)C(=O)[C@@H](C)NC(=O)CSC[C@@H](C(N)=O)NC(=O)[C@H](CCCC(N)=O)NC(=O)[C@H]([C@@H](C)O)NC2=O)c1C [PDC_EphA2-00010003, da-Me3Py-N-Cbg-Hgn-MeF-W1Me-KCOpipzaa-F23dMe-T-Hgn-C-NH2] ({CH2CO}-[dA][NMe3Pal]N[Gly(cBu)][Aad](NH2)[NMeF][Trp(1-Me)]K([CO-Piperazinyl(4-CH2COOH)])[X5]T[Aad](NH2)C-NH2; thioether N-12)"
3,> 9.00,"C[C@H]1NC(=O)CSC[C@@H](C(N)=O)NC(=O)[C@H](CCCC(N)=O)NC(=O)[C@H]([C@@H](C)O)NC(=O)[C@H](Cc2cn(C)c3ccccc23)NC(=O)[C@H](CCCCNC(=O)N2CCN(CC(=O)O)CC2)NC(=O)[C@H](Cc2cn(C)c3ccccc23)NC(=O)[C@H](CCC(=O)O)N(C)C(=O)[C@H](CCCC(N)=O)NC(=O)[C@H](C2CCC2)NC(=O)[C@H](CC(N)=O)NC(=O)[C@H](Cc2cccnc2)N(C)C1=O [PDC_EphA2-00010009, da-Me3Py-N-Cbg-Hgn-MeE-W1Me-KCOpipzaa-W1Me-T-Hgn-C-NH2] ({CH2CO}-[dA][NMe3Pal]N[Gly(cBu)][Aad](NH2)[NMeE][Trp(1-Me)]K([CO-Piperazinyl(4-CH2COOH)])[Trp(1-Me)]T[Aad](NH2)C-NH2; thioether N-12)"
4,> 9.00,"CCCCC[C@H]1NC(=O)CSC[C@@H](C(N)=O)NC(=O)[C@H](CCCC(N)=O)NC(=O)[C@H]([C@@H](C)O)NC(=O)[C@H](Cc2cn(C)c3ccccc23)NC(=O)[C@H](CCCCNC(=O)N2CCN(CC(=O)O)CC2)NC(=O)[C@H](Cc2cn(C)c3ccccc23)NC(=O)[C@H](CCC(=O)O)N(C)C(=O)[C@H](CCCC(N)=O)NC(=O)[C@H](CC(C)C)NC(=O)[C@H](CC(N)=O)NC(=O)[C@H](Cc2cccnc2)N(C)C1=O [PDC_EphA2-00018530, dahp-Me3Py-N-L-Hgn-MeE-W1Me-KCOpipzaa-W1Me-T-Hgn-C-NH2] ({CH2CO}-[dAhp(2)][NMe3Pal]NL[Aad](NH2)[NMeE][Trp(1-Me)]K([CO-Piperazinyl(4-CH2COOH)])[Trp(1-Me)]T[Aad](NH2)C-NH2; thioether N-12)"
5,> 9.00,"CC(C)C[C@@H]1NC(=O)[C@H](CC(N)=O)NC(=O)[C@H](Cc2cccnc2)N(C)C(=O)[C@@H](C)NC(=O)CSC[C@@H](C(N)=O)NC(=O)[C@H](CCCC(N)=O)NC(=O)[C@H]([C@@H](C)O)NC(=O)[C@H](Cc2cn(C)c3ccccc23)NC(=O)[C@H](CCCCNC(=O)N2CCN(CC(=O)O)CC2)NC(=O)[C@H](Cc2cn(C)c3ccccc23)NC(=O)[C@H](CCC(=O)O)N(C)C(=O)[C@H](CCCC(=O)O)NC1=O [PDC_EphA2-00010006, da-Me3Py-N-L-Hgl-MeE-W1Me-KCOpipzaa-W1Me-T-Hgn-C-NH2] ({CH2CO}-[dA][NMe3Pal]NL[Aad][NMeE][Trp(1-Me)]K([CO-Piperazinyl(4-CH2COOH)])[Trp(1-Me)]T[Aad](NH2)C-NH2; thioether N-12)"
6,> 9.00,"C[C@@H](O)[C@@H]1NC(=O)[C@H](Cc2cn(C)c3ccccc23)NC(=O)[C@H](CCCCNC(=O)N2CCN(CC(=O)O)CC2)NC(=O)[C@H](Cc2cn(C)c3c(Cl)cccc23)NC(=O)[C@H](Cc2ccccc2)N(C)C(=O)[C@H](CCCC(N)=O)NC(=O)[C@H](C2CCC2)NC(=O)[C@H](CC(N)=O)NC(=O)[C@H](Cc2ccccc2)N(C)C(=O)[C@@H](Cc2cccc(C(N)=O)c2)NC(=O)CSC[C@@H](C(N)=O)NC(=O)[C@H](CCCC(N)=O)NC1=O [PDC_EphA2-00019432, df3CON-MeF-N-Cbg-Hgn-MeF-W1Me7Cl-KCOpipzaa-W1Me-T-Hgn-C-NH2] ({CH2CO}-[dPhe(3-CONH2)][NMeF]N[Gly(cBu)][Aad](NH2)[NMeF][Trp(1-Me,7-Cl)]K([CO-Piperazinyl(4-CH2COOH)])[Trp(1-Me)]T[Aad](NH2)C-NH2; thioether N-12)"
